In patent US20070249673A1, “Method for administering tolperisone” (priority 2006, published 2007):

Assay: Pharmacokinetic profile of tolperisone after single and multi-dosing (150 mg regimen over 7 days) in healthy subjects under fasted and fed conditions
Settings: for AUC(0-t) / AUC(inf) / Cmax / t½ / λz / AUC(0-6): mean ± SD; for Tmax: median
[1] = Day 1 - 0800 Dose, Fasted, Females
[2] = Day 1 - 0800 Dose, Fasted, Males
[3] = Day 1 - 0800 Dose, Fasted, both sexes
[4] = Day 1 - 0800 Dose, Fed, Females
[5] = Day 1 - 0800 Dose, Fed, both sexes
[6] = Day 1, fed vs fasted, both sexes
[7] = Day 2 - 2200 Dose, Fasted, Females
[8] = Day 2 - 2200 Dose, Fasted, Males
[9] = Day 2 - 2200 Dose, Fasted, both sexes
[10] = Day 2 - 2200 Dose, Fed, Females
[11] = Day 2 - 2200 Dose, Fed, both sexes
[12] = Day 7 - 0800 Dose, Fasted, Females
[13] = Day 7 - 0800 Dose, Fasted, Males
[14] = Day 7 - 0800 Dose, Fasted, both sexes
[15] = Day 7 - 0800 Dose, Fed, Females
[16] = Day 7 - 0800 Dose, Fed, both sexes
[17] = Day 7 - 2200 Dose, Fasted, Females
[18] = Day 7 - 2200 Dose, Fasted, Males
[19] = Day 7 - 2200 Dose, Fasted, both sexes
[20] = Day 7 - 2200 Dose, Fed, Females
[21] = Day 7 - 2200 Dose, Fed, both sexes

Protocol: Dosing Regimen: Subjects in each cohort received tolperisone according to the following regimen.
Blood samples for the measurement of the plasma concentrations of tolperisone and metabolites M1 (4-hydroxymethyltolperisone) and M4 (4-carboxy-tolperisone) were collected at the times shown in Table 8.
Bioanalytical: Plasma concentrations of tolperisone and metabolites M1 and M4 were measured using a validated LC/MS/MS assay by Pharm-analyt Laboratory, Baden Austria. The limits of quantitation (LOQ) for tolperisone, Mi, and M4 in plasma were 0.2 ng/ML, and 0.01 μg/mL, respectively.
Pharmacokinetic Analyses: Pharmacokinetic parameters for tolperisone, M1, and M4 were calculated using non-compartmental analysis. Only plasma concentrations greater than or equal to the LOQ for the respective assay were used in the pharmacokinetic analyses. Actual blood sampling times were used in all pharmacokinetic analyses. […] All pharmacokinetic calculations were done using SAS® for Windows® Version 9.1.3.
The maximum plasma concentration (Cmax) and time to Cmax (Tmax) were taken directly from the data. The elimination rate constant, λz, was calculated as the negative of the slope of the terminal log-linear segment of the plasma concentration-time curve. The range of data to be used for each subject and treatment was determined by visual inspection of a semi-logarithmic plot of concentration versus time. Elimination half-life (t½) was calculated according to the following equation: [formula] Area under the curve to the final sample with a concentration greater than or equal to the LOQ [(AUC(0-t)] was calculated using the linear trapezoidal method and extrapolated to infinity [AUC(inf)] using: [formula] where Ctf is the final concentration≧LOQ.
The maximum plasma concentration (Cmax) and time to Cmax (Tmax) were taken directly from the data.
The maximum plasma concentration (Cmax) and time to Cmax (Tmax) were taken directly from the data. The elimination rate constant, λz, and half-life, t½, were calculated as described for the 0800 dose on Day 1 (above). Areas under the curve to the final sample with a concentration greater than or equal to the LOQ [(AUC(O-t)] and over the 6-hour dosing interval [AUC(0-6)] were calculated using the linear trapezoidal method.

Compound: CC(CN1CCCCC1)C(=O)c1ccc(C(=O)O)cc1 (racemic) [Metabolite M4, 4-carboxy-tolperisone]
- AUC(0-t) [1]: 2.79 ± 0.37 (3) h · μg/mL
- AUC(inf) [1]: 2.86 ± 0.40 (3) h · μg/mL
- Cmax [1]: 1.31 ± 0.05 (3) μg/mL
- t½ [1]: 0.99 ± 0.04 (3) h
- λz [1]: 0.6981 ± 0.0253 (3) h^−1
- Tmax [1]: 1.00 (3) h
- AUC(0-t) [2]: 2.26 ± 0.42 (7) h · μg/mL
- AUC(inf) [2]: 2.34 ± 0.44 (7) h · μg/mL
- Cmax [2]: 1.31 ± 0.44 (7) μg/mL
- t½ [2]: 1.10 ± 0.08 (7) h
- λz [2]: 0.6321 ± 0.0488 (7) h^−1
- Tmax [2]: 0.75 (7) h
- AUC(0-t) [3]: 2.42 ± 0.46 (10) h · μg/mL
- AUC(inf) [3]: 2.49 ± 0.48 (10) h · μg/mL
- Cmax [3]: 1.31 ± 0.36 (10) μg/mL
- t½ [3]: 1.07 ± 0.088 (10) h
- λz [3]: 0.6519 ± 0.0524 (10) h^−1
- Tmax [3]: 0.88 (10) h
- AUC(0-t) [4]: 2.74 ± 0.74 (4) h · μg/mL
- AUC(inf) [4]: 2.94 ± 0.84 (4) h · μg/mL
- Cmax [4]: 1.02 ± 0.18 (4) μg/mL
- t½ [4]: 1.16 ± 0.21 (4) h
- λz [4]: 0.6189 ± 0.1389 (4) h^−1
- Tmax [4]: 2.00 (4) h
- AUC(0-t) (Day 1 - 0800 Dose, Fed, Males): 2.32 ± 0.70 (6) h · μg/mL
- AUC(inf) (Day 1 - 0800 Dose, Fed, Males): 2.43 ± 0.76 (6) h · μg/mL
- Cmax (Day 1 - 0800 Dose, Fed, Males): 1.27 ± 0.45 (6) μg/mL
- t½ (Day 1 - 0800 Dose, Fed, Males): 1.17 ± 0.19 (6) h
- λz (Day 1 - 0800 Dose, Fed, Males): 0.6047 ± 0.0938 (6) h^−1
- Tmax (Day 1 - 0800 Dose, Fed, Males): 0.88 (6) h
- AUC(0-t) [5]: 2.49 ± 0.70 (10) h · μg/mL
- AUC(inf) [5]: 2.64 ± 0.79 (10) h · μg/mL
- Cmax [5]: 1.17 ± 0.38 (10) μg/mL
- t½ [5]: 1.16 ± 0.19 (10) h
- λz [5]: 0.6104 ± 0.1067 (10) h^−1
- Tmax [5]: 1.50 (10) h
- decrease in the mean value for Cmax on administration with food [6]: 11%
- increase in the mean value for AUC(inf) on administration with food [6]: 6%
- Cmax [7]: 0.96 ± 0.48 (3) μg/mL
- Tmax [7]: 1.00 (3) h
- Cmax [8]: 0.53 ± 0.32 (7) μg/mL
- Tmax [8]: 1.50 (7) h
- Cmax [9]: 0.66 ± 0.40 (10) μg/mL
- Tmax [9]: 1.25 (10) h
- Cmax [10]: 0.82 ± 0.41 (4) μg/mL
- Tmax [10]: 1.25 (4) h
- Cmax (Day 2 - 2200 Dose, Fed, Males): 0.75 ± 0.42 (6) μg/mL
- Tmax (Day 2 - 2200 Dose, Fed, Males): 1.00 (6) h
- Cmax [11]: 0.78 ± 0.40 (10) μg/mL
- Tmax [11]: 1.00 (10) h
- mean AUC(0-6) under fed conditions lower than fasted (Day 7, 0800 dose, both sexes): 3%
- mean Cmax under fed conditions lower than fasted (Day 7, 0800 dose, both sexes): 28%
- AUC(0-6) [12]: 2.86 ± 0.42 (3) h · μg/mL
- Cmax [12]: 1.57 ± 0.25 (3) μg/mL
- t½ [12]: 1.12 ± 0.08 (3) h
- λz [12]: 0.6226 ± 0.0416 (3) h^−1
- Tmax [12]: 0.75 (3) h
- AUC(0-6) [13]: 2.06 ± 0.39 (7) h · μg/mL
- Cmax [13]: 1.04 ± 0.32 (7) μg/mL
- t½ [13]: 1.20 ± 0.07 (7) h
- λz [13]: 0.5809 ± 0.0358 (7) h^−1
- Tmax [13]: 0.75 (7) h
- AUC(0-6) [14]: 2.30 ± 0.54 (10) h · μg/mL
- Cmax [14]: 1.19 ± 0.38 (10) μg/mL
- t½ [14]: 1.17 ± 0.081 (10) h
- λz [14]: 0.5934 ± 0.0406 (10) h^−1
- Tmax [14]: 0.75 (10) h
- AUC(0-6) [15]: 2.31 ± 0.39 (4) h · μg/mL
- Cmax [15]: 0.95 ± 0.45 (4) μg/mL
- t½ [15]: 1.10 ± 0.20 (3) h
- λz [15]: 0.6452 ± 0.1199 (3) h^−1
- Tmax [15]: 2.00 (4) h
- AUC(0-6) (Day 7 - 0800 Dose, Fed, Males): 2.17 ± 0.57 (6) h · μg/mL
- Cmax (Day 7 - 0800 Dose, Fed, Males): 0.80 ± 0.24 (6) μg/mL
- t½ (Day 7 - 0800 Dose, Fed, Males): 1.21 ± 0.30 (6) h
- λz (Day 7 - 0800 Dose, Fed, Males): 0.5978 ± 0.1116 (6) h^−1
- Tmax (Day 7 - 0800 Dose, Fed, Males): 1.75 (6) h
- AUC(0-6) [16]: 2.23 ± 0.49 (10) h · μg/mL
- Cmax [16]: 0.86 ± 0.32 (10) μg/mL
- t½ [16]: 1.17 ± 0.26 (09) h
- λz [16]: 0.6136 ± 0.1092 (09) h^−1
- Tmax [16]: 2.00 (10) h
- Cmax [17]: 1.40 ± 0.21 (3) μg/mL
- Tmax [17]: 1.50 (3) h
- Cmax [18]: 0.844 ± 0.243 (7) μg/mL
- Tmax [18]: 1.03 (7) h
- Cmax [19]: 1.01 ± 0.35 (10) μg/mL
- Tmax [19]: 1.27 (10) h
- Cmax [20]: 0.99 ± 0.25 (4) μg/mL
- Tmax [20]: 1.25 (4) h
- Cmax (Day 7 - 2200 Dose, Fed, Males): 0.94 ± 0.25 (6) μg/mL
- Tmax (Day 7 - 2200 Dose, Fed, Males): 1.04 (6) h
- Cmax [21]: 0.96 ± 0.24 (10) μg/mL
- Tmax [21]: 1.04 (10) h
- accumulation (increase in Cmax over the seven days of dosing) (seven days of dosing, up to 150 mg three times daily): little or no accumulation
- mean elimination half-life (summary, not dependent on sex, food or duration of dosing): ~1.1 h
